# Values joined by “and” are separate entries in the source; they are usually repeats but may differ in a detail not shown here. Equal entries are not always repeated. The star is where a group is joined. (C18H37)2NCOCH2OCH2CO = CCCCCCCCCCCCCCCCCCN(CCCCCCCCCCCCCCCCCC)C(=O)COCC(=O)*; OBn = c1ccc(CO*)cc1
# Experiments:
# [1] = Chloride release from liposomes (chloride-specific electrode); assay type: biochemical; settings: for chloride release / efflux from liposomes: unilamellar liposomes 182±12 nm
# Protocol: Liposomes were prepared by reverse-phase evaporation^26 as previously reported.^27 Cl^− release was determined with a resin, chloride-specific electrode. Ion transport, mediated by (C18H37)2NCOCH2OCH2CO-GGGPGGG-OCH2Ph (SEQ ID NO.: 2), was studied in unilamellar liposomes of 182±12 nm average dimension. […] Neither the anchor-GGGLGGG (SEQ ID NO.: 3) compound nor the anchor-GGG compound retains the kink believed to be present in (C18H37)2NCOCH2OCH2CO-GGGPGGG-OCH2Ph (SEQ ID NO.: 2) owing to the presence of the proline residue.
# Substituting an impermeant external ion (SO4^=) for a permeant one (NO3^−) will generate a membrane potential that inhibits Cl^− release. Thus, replacing nitrate by sulfate in the aqueous medium produced a 5-fold reduction in chloride efflux (data not shown).
# [2] = Carboxyfluorescein fluorescence dequenching: pore activation and size, dextran block; assay type: biochemical
# Protocol: Fluorescence dequenching was used to study pore activation and size as previously described in Saito et al. CF dequenching reflects the kinetics of pore activation and dequenching is accurately fit by this equation. Ft=F0+A1(1−e^−(t/τ))+mt
# This exponential model requires that the concentration dependence of quenching will reflect the molecularity of pore activation (FIG. 9a, 9b). […] We infer therefore that at ˜100 μM, the active pore involves two molecules of (C18H37)2NCOCH2OCH2CO-GGG-P-GGG-OCH2Ph (SEQ ID NO.: 2). […] Size-specific dextran block (using ˜6–26 Å diameter molecules) confirmed an apparent pore diameter of 6.6 A (FIG. 9d, 9e) (M. Saito, S. J. Korsmeyer, P. H. Schlesinger, Nature Cell Biology, 553 (2000); S. Rex, G. Schwarz, Biochemistry37, 2336 (1998)).
# [3] = Pore size from molecular models and bilayer conductance data
# RAW 264.7 cells [4] = test: Intracellular calcium, Fura-2 fluorescence ratio method; settings: 46 μM or 92 μM applied at time zero
# Protocol: We determined cell volume from 0.5 micron image stacks collected at 30 second intervals and calculated the time-dependent volume changes that are shown in FIG. 7B. […] RAW 264.7 cells (American Type Culture Collection, Manassas Va.) were plated into microscope chambers in Dulbeccos Minimal Essential Media with antibiotics and 10% fetal calf serum and allowed to recover over night at 5% CO2. Prior to experiment they were transferred to Hanks buffered saline (10 mM HEPES, pH 7.0) and placed into the thermostated microscope stage (37° C.) and permitted to equilibrate for 10 min. Cell volume was monitored and corrected for changes in cell geometry by optical sections at 0.5 micron steps from the glass surface to the top of the cell (typically 5–7 sections). Images were collected using a Zeiss 100 M Axovert microscope, a 12-bit Sensi-Cam, and analyzed using Slidebook 3.0 (Intelligent Imaging Innovations, Inc. Cambridge, Mass.). Cell volume was calculated by summing the intracellular surface for each image in the stack of sections. […] In FIG. 7B the cellular volume changes were followed by comparing sequential series of z-stacks from optical sections and normalized to total cell volume at the beginning of the experiment (t=0). […] Intracellular calcium was followed using Fura-2 fluorescence ratio method. […]
# RAW 264.7 cells [5] = test: Cell volume regulation in a monocytic cell line (optical sections)
# Protocol: We determined cell volume from 0.5 micron image stacks collected at 30 second intervals and calculated the time-dependent volume changes that are shown in FIG. 7B. […] RAW 264.7 cells (American Type Culture Collection, Manassas Va.) were plated into microscope chambers in Dulbeccos Minimal Essential Media with antibiotics and 10% fetal calf serum and allowed to recover over night at 5% CO2. Prior to experiment they were transferred to Hanks buffered saline (10 mM HEPES, pH 7.0) and placed into the thermostated microscope stage (37° C.) and permitted to equilibrate for 10 min. Cell volume was monitored and corrected for changes in cell geometry by optical sections at 0.5 micron steps from the glass surface to the top of the cell (typically 5–7 sections). Images were collected using a Zeiss 100 M Axovert microscope, a 12-bit Sensi-Cam, and analyzed using Slidebook 3.0 (Intelligent Imaging Innovations, Inc. Cambridge, Mass.). Cell volume was calculated by summing the intracellular surface for each image in the stack of sections. […] In FIG. 7B the cellular volume changes were followed by comparing sequential series of z-stacks from optical sections and normalized to total cell volume at the beginning of the experiment (t=0). […] Intracellular calcium was followed using Fura-2 fluorescence ratio method. […] Depolarization dependent increase in cytosolic calcium was initiated by the switch to 100 mM KCl at 200 seconds (open triangle).
# [6] = Voltage clamp in planar lipid bilayers; assay type: biochemical; settings: for maximum conductance (chloride diffusion pathway): linear current-voltage relationship, 63 μM in b201
# Protocol: The chloride selectivity of (C18H37)2NCOCH2OCH2CO-GGGPGGG-OCH2Ph (SEQ ID NO.: 2) was assessed by voltage clamp methods in planar phospholipid bilayers. Addition of (C18H37)2NCOCH2OCH2CO-GGGPGGG-OCH2Ph (SEQ ID NO.: 2) to planar bilayer lipids produced large currents within seconds in a 450:150 mM KCl ion gradient. The sign and the magnitude of this current indicated Cl^− transport by a nanoSiemen-sized channel. A linear current-voltage relationship gave a maximum conductance of 1.3±0.1 nS. The reversal potential, Erev, was 28±0.45 mV, corresponding to the calculated chloride Nernst potential, ECl, of 28.2 mV. This confirms the >10:1 Cl^−/K^+ selectivity observed in liposomes. The ion selectivity and conductivity indicate that (C18H37)2NCOCH2OCH2CO-GGGPGGG-OCH2Ph (SEQ ID NO.: 2) forms a large, stable, anion selective aqueous pore in bilayer membranes.
# Planar lipid bilayers were formed by standard methods. (C18H37)2NCOCH2OCH2CO-GGGPGGG-OCH2Ph (SEQ ID NO.: 2) was applied to the cis chamber at 60 μM (micromolar) with a 450 mM/150 mM KCl gradient present across the membrane. Seconds later Cl^− currents appeared and voltage was varied from +20 to −2 mV. Fractional open time was computed using the computer programs Fetchan and pStat (Axon Instruments, CA).
# The chloride selectivity of (C18H37)2NCOCH2OCH2CO-GGG-P-GGG-OCH2Ph (SEQ ID NO.: 2) was assessed by voltage clamp methods in planar lipid bilayers prepared as described in P. Schlesinger, et al., Proc. Natl. Acad. Sci. 94, 11357 (1997). The addition of 63 μM (C18H37)2NCOCH2OCH2CO-GGG-P-GGG-OCH2Ph (SEQ ID NO.: 2) produced large currents within seconds in a 450:150 mM KCl ion gradient (FIG. 8a). […] The reversal potential, Erev, was 28±0.45 mV, corresponding to the calculated chloride Nernst potential, ECl, of 28.2 mV (FIG. 8c). This confirms the >10:1 Cl^−/K^+ selectivity observed in liposomes. The ion selectivity and conductivity indicate that (C18H37)2NCOCH2OCH2CO-GGG-P-GGG-OCH2Ph (SEQ ID NO.: 2) forms a large, stable, anion selective aqueous pore in bilayer membranes.
molecule,measurement,setting,value
"CC(C)[C@@H]1NC(=O)[C@H](C)OC(=O)[C@@H](C(C)C)NC(=O)[C@@H](C(C)C)OC(=O)[C@H](C(C)C)NC(=O)[C@H](C)OC(=O)[C@@H](C(C)C)NC(=O)[C@@H](C(C)C)OC(=O)[C@H](C(C)C)NC(=O)[C@H](C)OC(=O)[C@@H](C(C)C)NC(=O)[C@@H](C(C)C)OC1=O [valinomycin, reference compound]",effect on membrane potential inhibition of net chloride movement,[1]; added to liposomes with the channel compound in sulfate medium,permitted the remaining chloride to exit the liposomes
(H37C18)2NCOCH2OCH2CO-Gly-Gly-Gly-Leu-Gly-Gly-Gly-OCH2Ph ({(H37C18)2NCOCH2OCH2CO}-GGGLGGG-OBn) [anchor-GGGLGGG],chloride release / efflux from liposomes,[1],dramatically reduced
(C18H37)2NCOCH2OCH2CO-Gly-Gly-Gly-Pro-Gly-Gly-Gly-OCH2Ph ({(C18H37)2NCOCH2OCH2CO}-GGGPGGG-OBn; SMILES CCCCCCCCCCCCCCCCCCN(CCCCCCCCCCCCCCCCCC)C(=O)COCC(=O)NCC(=O)NCC(=O)NCC(=O)N1CCC[C@H]1C(=O)NCC(=O)NCC(=O)NCC(=O)OCc1ccccc1) [(C18H37)2NCOCH2OCH2CO-GGGPGGG-OCH2Ph],molecules in the active pore,"[2]; at ~100 μM, inferred",two
same,apparent pore diameter,"[2]; size-specific dextran block, ~6–26 Å diameter molecules",6.6 A
same,reduction in chloride efflux on replacing nitrate by sulfate in the aqueous medium,"[1]; external SO4 instead of NO3, data not shown",5 fold
same,chloride release / efflux from liposomes,[1],"rapid, concentration dependent, and went to completion"
same,pore size,"[3]; molecular models, conductance data and dextran block taken together",6–8 Å
same,pore diameter,[3]; suggested by molecular models and bilayer conductance data,6.5–8 Å
same,change in cytosolic calcium,RAW 264.7 cells [4],small increases
same,cell volume decrease,"RAW 264.7 cells [5]; 46 μM added at t=0, normalized to total cell volume at t=0",20% and 20±0.5%
same,"extent of cell volume decrease, of the initial cell volume",RAW 264.7 cells [5]; 100 μM,20–25%
same,effect on cellular volume,RAW 264.7 cells [5]; mammalian cells,modulates cellular volume
same,voltage dependent gating,"[6]; 60 μM in cis chamber, 450 mM/150 mM KCl gradient, voltage +20 to -2 mV",voltage dependent gating
same,"reversal potential, Erev","[6]; 450:150 mM KCl ion gradient, calculated chloride Nernst potential 28.2 mV",28±0.45 mV
same,maximum conductance (chloride diffusion pathway),[6]; 450:150 mM KCl ion gradient,1.3±0.1 nS
same,maximum conductance (chloride diffusion pathway),"[6]; 450:150 mM KCl ion gradient, listed as (C18H37)2NCOCH2OCH2CO-GGG-P-GGG-OCH2Ph",1.3±0.01 nS
(C18H37)2NCOCH2OCH2CO-Gly-Gly-Gly-OCH2Ph [(C18H37)2NCOCH2OCH2CO-GGG-OCH2Ph],reduction of Cl- release,[1]; compared with the GGGPGGG compound,6 fold

# — patent US7129208B2, “Synthetic ion channels” (Washington University, priority 2002, dated 2006)
